System: cancer cell line MDA-MB-468
Experiment: Combination index with known cancer drugs against proliferation (Calcusyn software)
Assay type: cell-based
Text: A combination index of less than 0.1 indicates very strong synergy; a combination index of 0.1 to 0.3 indicates strong synergism; a combination index of 0.3 to 0.7 indicates synergism; a combination index of 0.7 to 0.85 indicates moderate synergism; a combination index of 0.85 to 0.9 indicates slight synergism and a combination index of 0.9 to 1.1 indicates only very slight synergism, said combination being close to merely additive.
The combination index may be calculated using calcusyn software.
Evidence of synergy was determined by calculation of the combination index using Calcusyn software.
The MTT assay was used initially to determine the anti-proliferative activity of the test compounds. In the MTT assay a yellow thiazolyl blue tetrazolium bromide salt (MTT) is reduced, in metabolically active cells, to form insoluble purple formazan crystals which are solubilised by the addition of dimethyl sulphoxide (DMSO). Absorbance readings can then be determined spectrophotometrically and a relationship established between control untreated cells and drug treated cells enabling the quantification of anti-proliferative changes as a result of drug treatment (Mosmann, 1983).
Wells containing medium only were used as blanks. Following the attachment period, cells were treated with appropriate drug concentrations (20 μl added per well). 40 mg/ml stock drug solutions, in DMSO, were stored at −20° C. and on the day of drug treatment working solutions of 4 mg/ml were prepared in medium which was further diluted to achieve final drug dilution volumes of 20 μl. Initial screening was determined over a concentration range of 1-200 μg/ml. For potent compounds the assay was repeated over a narrower concentration range to determine accurate IC50 values. Cells were exposed to drug for 96 h continual exposure (37° C., 5% CO2). Following the 96 h incubation, 50 μl MTT solution (1 g MTT/500 ml PBS) was added per well and the plates were further incubated for 4 h (37° C., 5% CO2). After incubation the MTT and medium was removed from the wells and 100 μl DMSO added per well. Plates were agitated on an orbital mixer platform (Stuart Scientific) for 10 minutes. Absorbance was measured at 570 nm on a Biotrak II (Amersham Bioscience) plate reader. IC50 values were calculated comparing control and drug treated cells.

SMILES: CCCCC/C=C\C/C=C\C/C=C\CCCCCOC(=O)c1ccc2c(c1O)C(=O)OC(C)C2 (racemic) [ALM-43, γ-Linolenyl Ester]
- Combination Index (Cisplatin 1 × 10^−2 mol/L, ALM compound 0.1 μg/ml): 0.063
- Combination Index (Cisplatin 1 × 10^−2 mol/L, ALM compound 0.5 μg/ml): 0.003
- Combination Index (Cisplatin 1 × 10^−2 mol/L, ALM compound 1.0 μg/ml): 0.007
- Combination Index (Cisplatin 1 × 10^−2 mol/L, ALM compound 5.0 μg/ml): 0.038
- Combination Index (Cisplatin 1 × 10^−3 mol/L, ALM compound 0.1 μg/ml): No
- Combination Index (Cisplatin 1 × 10^−3 mol/L, ALM compound 0.5 μg/ml): No
- Combination Index (Cisplatin 1 × 10^−3 mol/L, ALM compound 1.0 μg/ml): No
- Combination Index (Cisplatin 1 × 10^−3 mol/L, ALM compound 5.0 μg/ml): No
- Combination Index (Cisplatin 1 × 10^−4 mol/L, ALM compound 0.1 μg/ml): No
- Combination Index (Cisplatin 1 × 10^−4 mol/L, ALM compound 0.5 μg/ml): No
- Combination Index (Cisplatin 1 × 10^−4 mol/L, ALM compound 1.0 μg/ml): No
- Combination Index (Cisplatin 1 × 10^−4 mol/L, ALM compound 5.0 μg/ml): No
- Combination Index (Cisplatin 1 × 10^−5 mol/L, ALM compound 0.1 μg/ml): No
- Combination Index (Cisplatin 1 × 10^−5 mol/L, ALM compound 0.5 μg/ml): No
- Combination Index (Cisplatin 1 × 10^−5 mol/L, ALM compound 1.0 μg/ml): No
- Combination Index (Cisplatin 1 × 10^−5 mol/L, ALM compound 5.0 μg/ml): No
- Combination Index (Cisplatin 1 × 10^−6 mol/L, ALM compound 0.1 μg/ml): No
- Combination Index (Cisplatin 1 × 10^−6 mol/L, ALM compound 0.5 μg/ml): No
- Combination Index (Cisplatin 1 × 10^−6 mol/L, ALM compound 1.0 μg/ml): No
- Combination Index (Cisplatin 1 × 10^−6 mol/L, ALM compound 5.0 μg/ml): No
- Combination Index (Cisplatin 1 × 10^−7 mol/L, ALM compound 0.1 μg/ml): 0.636
- Combination Index (Cisplatin 1 × 10^−7 mol/L, ALM compound 0.5 μg/ml): 0.612
- Combination Index (Cisplatin 1 × 10^−7 mol/L, ALM compound 1.0 μg/ml): No
- Combination Index (Cisplatin 1 × 10^−7 mol/L, ALM compound 5.0 μg/ml): No
- Combination Index (Cisplatin 1 × 10^−8 mol/L, ALM compound 0.1 μg/ml): 0.199
- Combination Index (Cisplatin 1 × 10^−8 mol/L, ALM compound 0.5 μg/ml): No
- Combination Index (Cisplatin 1 × 10^−8 mol/L, ALM compound 1.0 μg/ml): No
- Combination Index (Cisplatin 1 × 10^−8 mol/L, ALM compound 5.0 μg/ml): No
- Combination Index (Cisplatin 1 × 10^−9 mol/L, ALM compound 0.1 μg/ml): 0.054
- Combination Index (Cisplatin 1 × 10^−9 mol/L, ALM compound 0.5 μg/ml): 0.536
- Combination Index (Cisplatin 1 × 10^−9 mol/L, ALM compound 1.0 μg/ml): No
- Combination Index (Cisplatin 1 × 10^−9 mol/L, ALM compound 5.0 μg/ml): No
- Combination Index (Doxorubicin 1 × 10^−4 mol/L, ALM compound 0.1 μg/ml): No
- Combination Index (Doxorubicin 1 × 10^−4 mol/L, ALM compound 0.5 μg/ml): No
- Combination Index (Doxorubicin 1 × 10^−4 mol/L, ALM compound 1.0 μg/ml): No
- Combination Index (Doxorubicin 1 × 10^−4 mol/L, ALM compound 5.0 μg/ml): No
- Combination Index (Doxorubicin 1 × 10^−5 mol/L, ALM compound 0.1 μg/ml): 0.385
- Combination Index (Doxorubicin 1 × 10^−5 mol/L, ALM compound 0.5 μg/ml): 0.700
- Combination Index (Doxorubicin 1 × 10^−5 mol/L, ALM compound 1.0 μg/ml): 0.278
- Combination Index (Doxorubicin 1 × 10^−5 mol/L, ALM compound 5.0 μg/ml): 0.457
- Combination Index (Etoposide 1 × 10^−4 mol/L, ALM compound 0.1 μg/ml): 0.399
- Combination Index (Etoposide 1 × 10^−4 mol/L, ALM compound 0.5 μg/ml): 0.289
- Combination Index (Etoposide 1 × 10^−4 mol/L, ALM compound 1.0 μg/ml): 0.418
- Combination Index (Etoposide 1 × 10^−4 mol/L, ALM compound 5.0 μg/ml): 0.474
- Combination Index (Etoposide 1 × 10^−5 mol/L, ALM compound 0.1 μg/ml): No
- Combination Index (Etoposide 1 × 10^−5 mol/L, ALM compound 0.5 μg/ml): No
- Combination Index (Etoposide 1 × 10^−5 mol/L, ALM compound 1.0 μg/ml): No
- Combination Index (Etoposide 1 × 10^−5 mol/L, ALM compound 5.0 μg/ml): No
- Combination Index (Etoposide 1 × 10^−6 mol/L, ALM compound 0.1 μg/ml): No
- Combination Index (Etoposide 1 × 10^−6 mol/L, ALM compound 0.5 μg/ml): 0.865
- Combination Index (Etoposide 1 × 10^−6 mol/L, ALM compound 1.0 μg/ml): No
- Combination Index (Etoposide 1 × 10^−6 mol/L, ALM compound 5.0 μg/ml): No
- Combination Index (Etoposide 1 × 10^−7 mol/L, ALM compound 0.1 μg/ml): 0.473
- Combination Index (Etoposide 1 × 10^−7 mol/L, ALM compound 0.5 μg/ml): 0.305
- Combination Index (Etoposide 1 × 10^−7 mol/L, ALM compound 1.0 μg/ml): No
- Combination Index (Etoposide 1 × 10^−7 mol/L, ALM compound 5.0 μg/ml): No
- Combination Index (Etoposide 1 × 10^−8 mol/L, ALM compound 0.1 μg/ml): 0.181
- Combination Index (Etoposide 1 × 10^−8 mol/L, ALM compound 0.5 μg/ml): 0.137
- Combination Index (Etoposide 1 × 10^−8 mol/L, ALM compound 1.0 μg/ml): No
- Combination Index (Etoposide 1 × 10^−8 mol/L, ALM compound 5.0 μg/ml): No
- Combination Index (Etoposide 1 × 10^−9 mol/L, ALM compound 0.1 μg/ml): 0.090
- Combination Index (Etoposide 1 × 10^−9 mol/L, ALM compound 0.5 μg/ml): 0.319
- Combination Index (Etoposide 1 × 10^−9 mol/L, ALM compound 1.0 μg/ml): No
- Combination Index (Etoposide 1 × 10^−9 mol/L, ALM compound 5.0 μg/ml): No
- Combination Index (Etoposide 1 × 10^−10 mol/L, ALM compound 0.1 μg/ml): 0.083
- Combination Index (Etoposide 1 × 10^−10 mol/L, ALM compound 0.5 μg/ml): 0.515
- Combination Index (Etoposide 1 × 10^−10 mol/L, ALM compound 1.0 μg/ml): No
- Combination Index (Etoposide 1 × 10^−10 mol/L, ALM compound 5.0 μg/ml): No
- Combination Index (Irinotecan 1 × 10^−3 mol/L, ALM compound 0.1 μg/ml): 0.088
- Combination Index (Irinotecan 1 × 10^−3 mol/L, ALM compound 0.5 μg/ml): 0.230
- Combination Index (Irinotecan 1 × 10^−3 mol/L, ALM compound 1.0 μg/ml): 0.438
- Combination Index (Irinotecan 1 × 10^−3 mol/L, ALM compound 5.0 μg/ml): 0.307
- Combination Index (Irinotecan 1 × 10^−4 mol/L, ALM compound 0.1 μg/ml): 0.019
- Combination Index (Irinotecan 1 × 10^−4 mol/L, ALM compound 0.5 μg/ml): 0.005
- Combination Index (Irinotecan 1 × 10^−4 mol/L, ALM compound 1.0 μg/ml): 0.040
- Combination Index (Irinotecan 1 × 10^−4 mol/L, ALM compound 5.0 μg/ml): 0.113
- Combination Index (Irinotecan 1 × 10^−5 mol/L, ALM compound 0.1 μg/ml): No
- Combination Index (Irinotecan 1 × 10^−5 mol/L, ALM compound 0.5 μg/ml): No
- Combination Index (Irinotecan 1 × 10^−5 mol/L, ALM compound 1.0 μg/ml): No
- Combination Index (Irinotecan 1 × 10^−5 mol/L, ALM compound 5.0 μg/ml): No
- Combination Index (Irinotecan 1 × 10^−6 mol/L, ALM compound 0.1 μg/ml): No
- Combination Index (Irinotecan 1 × 10^−6 mol/L, ALM compound 0.5 μg/ml): No
- Combination Index (Irinotecan 1 × 10^−6 mol/L, ALM compound 1.0 μg/ml): No
- Combination Index (Irinotecan 1 × 10^−6 mol/L, ALM compound 5.0 μg/ml): No
- Combination Index (Irinotecan 1 × 10^−7 mol/L, ALM compound 0.1 μg/ml): No
- Combination Index (Irinotecan 1 × 10^−7 mol/L, ALM compound 0.5 μg/ml): No
- Combination Index (Irinotecan 1 × 10^−7 mol/L, ALM compound 1.0 μg/ml): No
- Combination Index (Irinotecan 1 × 10^−7 mol/L, ALM compound 5.0 μg/ml): No
- Combination Index (Irinotecan 1 × 10^−8 mol/L, ALM compound 0.1 μg/ml): 0.514
- Combination Index (Irinotecan 1 × 10^−8 mol/L, ALM compound 0.5 μg/ml): 0.233
- Combination Index (Irinotecan 1 × 10^−8 mol/L, ALM compound 1.0 μg/ml): No
- Combination Index (Irinotecan 1 × 10^−8 mol/L, ALM compound 5.0 μg/ml): No
- Combination Index (Irinotecan 1 × 10^−9 mol/L, ALM compound 0.1 μg/ml): 0.701
- Combination Index (Irinotecan 1 × 10^−9 mol/L, ALM compound 0.5 μg/ml): 0.628
- Combination Index (Irinotecan 1 × 10^−9 mol/L, ALM compound 1.0 μg/ml): No
- Combination Index (Irinotecan 1 × 10^−9 mol/L, ALM compound 5.0 μg/ml): No
- Combination Index (Irinotecan 1 × 10^−11 mol/L, ALM compound 0.1 μg/ml): 0.172
- Combination Index (Irinotecan 1 × 10^−11 mol/L, ALM compound 0.5 μg/ml): 0.484
- Combination Index (Irinotecan 1 × 10^−11 mol/L, ALM compound 1.0 μg/ml): No
- Combination Index (Irinotecan 1 × 10^−11 mol/L, ALM compound 5.0 μg/ml): No

From patent publication US20090047221A1 (NIPRI LIMITED, priority 2004, published 2009)
